In brackets after ≈: the same amount, converted by molar mass.
How the values were obtained:
Staphylococcus aureus [1] = test: Antimicrobial activity against Staphylococcus aureus ATCC 25923 by standard broth microdilution method; type: functional
Streptococcus pneumoniae [2] = test: Antimicrobial activity against penicillin-resistant Streptococcus pneumoniae clinical isolates by standard broth microdilution method; type: functional
Escherichia coli [3] = test: Antimicrobial activity against Escherichia coli ATCC 25922 by standard broth microdilution method; type: functional
Streptococcus pyogenes = test: Antimicrobial activity against Streptococcus pyogenes ATCC 19615 by standard broth microdilution method; type: functional
Staphylococcus aureus [4] = test: Antimicrobial activity against methicillin-resistant Staphylococcus aureus clinical isolates by standard broth microdilution method; type: functional
Escherichia coli [5] = test: Antimicrobial activity against ciprofloxacin-resistant Escherichia coli clinical isolates by standard broth microdilution method; type: functional
[6] = system: Staphylococcus epidermidis; test: Antimicrobial activity against methicillin-resistant Staphylococcus epidermidis clinical isolates by standard broth microdilution method; type: functional
Staphylococcus aureus [7] = test: Antimicrobial activity against levofloxacin-resistant Staphylococcus aureus clinical isolates by standard broth microdilution method; type: functional
Streptococcus pneumoniae [8] = test: Antimicrobial activity against Streptococcus pneumoniae ATCC 49619 by standard broth microdilution method; type: functional
Pseudomonas aeruginosa = test: Antimicrobial activity against Pseudomonas aeruginosa ATCC 27853 by standard broth microdilution method; type: functional
[9] = system: Staphylococcus epidermidis; test: Antimicrobial activity against Staphylococcus epidermidis ATCC 12228 by standard broth microdilution method; type: functional
[10] = Aqueous solubility of the compound in water; type: physicochemical
[11] = Toxicity in ICR mouse administered as single intravenous dose; type: organism-based; conditions: in vivo

| Structure (SMILES) | MIC (Staphylococcus aureus [1]) | MIC (Streptococcus pneumoniae [2]) | MIC (Escherichia coli [3]) | MIC (Streptococcus pyogenes) | MIC (Staphylococcus aureus [4]) | MIC (Escherichia coli [5]) | MIC [6] | MIC (Staphylococcus aureus [7]) | MIC (Streptococcus pneumoniae [8]) | MIC (Pseudomonas aeruginosa) | MIC [9] | solubility [10] | LD50 [11] |
| --- | --- | --- | --- | --- | --- | --- | --- | --- | --- | --- | --- | --- | --- |
| C[C@H]1COc2c(N3CCC(O)CC3)c(F)cc3c(=O)c(C(=O)[O-])cn1c23.[Na+] | 0.0625 µg/mL | 0.125 µg/mL | 0.25 µg/mL | 0.125 µg/mL | 4 µg/mL | 0.5 µg/mL | 2 µg/mL | 2 µg/mL | 0.5 µg/mL | 2 µg/mL | 0.0625 µg/mL | – | – |
| C[C@H]1COc2c(N3CCC(O)CC3)c(F)cc3c(=O)c(C(=O)[O-])cn1c23.[K+] | 0.0625 µg/mL | 0.25 µg/mL | 0.5 µg/mL | 0.25 µg/mL | 8 µg/mL | 1 µg/mL | 2 µg/mL | 4 µg/mL | 0.5 µg/mL | 2 µg/mL | 0.0625 µg/mL | – | – |
| C[C@H]1COc2c(N3CC[C@@H](O)C3)c(F)cc3c(=O)c(C(=O)O)cn1c23 | 0.0625 µg/mL (≈ 0.179 µM) | 0.5 µg/mL (≈ 1.44 µM) | 0.125 µg/mL (≈ 0.359 µM) | 0.25 µg/mL (≈ 0.718 µM) | 4 µg/mL (≈ 11.5 µM) | 0.5 µg/mL (≈ 1.44 µM) | 2 µg/mL (≈ 5.74 µM) | 2 µg/mL (≈ 5.74 µM) | 0.25 µg/mL (≈ 0.718 µM) | 8 µg/mL (≈ 23 µM) | 0.0625 µg/mL (≈ 0.179 µM) | – | – |
| C[C@H]1COc2c(N3CC[C@H](O)C3)c(F)cc3c(=O)c(C(=O)O)cn1c23.O | 0.031 µg/mL | ≤ 0.016 µg/mL | 0.031 µg/mL | ≤ 0.016 µg/mL | 2 µg/mL | 0.0625 µg/mL | 1 µg/mL | 0.25 µg/mL | 0.125 µg/mL | 1 µg/mL | 0.125 µg/mL | 370 µg/mL | – |
| C[C@H]1COc2c(N3CC[C@H](O)C3)c(F)cc3c(=O)c(C(=O)[O-])cn1c23.[Na+] | 0.0625 µg/mL | 4 µg/mL | 0.0625 µg/mL | 4 µg/mL | 4 µg/mL | 0.25 µg/mL | 2 µg/mL | 2 µg/mL | 4 µg/mL | 2 µg/mL | 0.125 µg/mL | – | – |
| C[C@H]1COc2c(N3CC[C@H](O)C3)c(F)cc3c(=O)c(C(=O)[O-])cn1c23.[K+] | 0.0625 µg/mL | 4 µg/mL | 0.125 µg/mL | 4 µg/mL | 4 µg/mL | 0.5 µg/mL | 4 µg/mL | 2 µg/mL | 8 µg/mL | 4 µg/mL | 0.5 µg/mL | – | – |
| C[C@H]1COc2c(N3CC(O)C3)c(F)cc3c(=O)c(C(=O)O)cn1c23 | 0.0625 µg/mL (≈ 0.187 µM) | 0.5 µg/mL (≈ 1.5 µM) | 0.125 µg/mL (≈ 0.374 µM) | 0.125 µg/mL (≈ 0.374 µM) | 8 µg/mL (≈ 23.9 µM) | 0.5 µg/mL (≈ 1.5 µM) | 2 µg/mL (≈ 5.98 µM) | 1 µg/mL (≈ 2.99 µM) | 0.25 µg/mL (≈ 0.748 µM) | 4 µg/mL (≈ 12 µM) | 0.0625 µg/mL (≈ 0.187 µM) | – | – |
| O=C(O)c1cn2c3c(c(N4CCC(O)CC4)c(F)cc3c1=O)OC[C@@H]2CF | 0.0625 µg/mL (≈ 0.164 µM) | 0.031 µg/mL (≈ 0.0815 µM) | 1 µg/mL (≈ 2.63 µM) | 0.031 µg/mL (≈ 0.0815 µM) | 2 µg/mL (≈ 5.26 µM) | 2 µg/mL (≈ 5.26 µM) | 1 µg/mL (≈ 2.63 µM) | 0.5 µg/mL (≈ 1.31 µM) | 0.125 µg/mL (≈ 0.329 µM) | 2 µg/mL (≈ 5.26 µM) | 0.0625 µg/mL (≈ 0.164 µM) | – | – |
| O=C(O)c1cn2c3c(c(N4CC[C@@H](O)C4)c(F)cc3c1=O)OC[C@@H]2CF | 0.25 µg/mL (≈ 0.682 µM) | 0.25 µg/mL (≈ 0.682 µM) | 0.125 µg/mL (≈ 0.341 µM) | 0.0625 µg/mL (≈ 0.171 µM) | 4 µg/mL (≈ 10.9 µM) | 1 µg/mL (≈ 2.73 µM) | 2 µg/mL (≈ 5.46 µM) | 2 µg/mL (≈ 5.46 µM) | 0.5 µg/mL (≈ 1.36 µM) | 2 µg/mL (≈ 5.46 µM) | 0.0625 µg/mL (≈ 0.171 µM) | – | – |
| O=C(O)c1cn2c3c(c(N4CC[C@H](O)C4)c(F)cc3c1=O)OC[C@@H]2CF | 0.031 µg/mL (≈ 0.0846 µM) | 0.031 µg/mL (≈ 0.0846 µM) | 0.25 µg/mL (≈ 0.682 µM) | ≤ 0.016 µg/mL | 1 µg/mL (≈ 2.73 µM) | 0.5 µg/mL (≈ 1.36 µM) | 0.5 µg/mL (≈ 1.36 µM) | 0.5 µg/mL (≈ 1.36 µM) | 0.125 µg/mL (≈ 0.341 µM) | 1 µg/mL (≈ 2.73 µM) | 0.031 µg/mL (≈ 0.0846 µM) | 440 µg/mL (≈ 1200 µM) | – |
| O=C(O)c1cn2c3c(c(N4CC(O)C4)c(F)cc3c1=O)OC[C@@H]2CF | 0.125 µg/mL (≈ 0.355 µM) | – | 0.25 µg/mL (≈ 0.71 µM) | 0.0625 µg/mL (≈ 0.177 µM) | – | – | – | – | 0.25 µg/mL (≈ 0.71 µM) | 4 µg/mL (≈ 11.4 µM) | 0.0625 µg/mL (≈ 0.177 µM) | – | – |
| O=C(O)c1cn(C2CC2)c2cc(N3CCNCC3)c(F)cc2c1=O [CIPROFLOXACIN] | – | – | ≤ 0.016 µg/mL | 0.5 µg/mL (≈ 1.51 µM) | – | – | – | – | 2 µg/mL (≈ 6.04 µM) | – | 0.0625 µg/mL (≈ 0.189 µM) | – | – |
| C[C@H]1COc2c(N3CCN(C)CC3)c(F)cc3c(=O)c(C(=O)O)cn1c23.C[C@H]1COc2c(N3CCN(C)CC3)c(F)cc3c(=O)c(C(=O)O)cn1c23.O [LEVOFLOXACIN] | 0.25 µg/mL | – | ≤ 0.016 µg/mL | 0.5 µg/mL | 32 µg/mL | 8 µg/mL | 8 µg/mL | 4 µg/mL | – | – | 0.125 µg/mL | – | 358 mg/kg |
| COc1c(N2C[C@@H]3CCCN[C@@H]3C2)c(F)cc2c(=O)c(C(=O)O)cn(C3CC3)c12 [MOXIFLOXACIN] | – | – | 0.031 µg/mL (≈ 0.0772 µM) | 0.25 µg/mL (≈ 0.623 µM) | – | – | – | – | 0.25 µg/mL (≈ 0.623 µM) | 4 µg/mL (≈ 9.96 µM) | ≤ 0.016 µg/mL | – | – |
| CC1(C)S[C@@H]2[C@H](NC(=O)Cc3ccccc3)C(=O)N2[C@H]1C(=O)O [PENICILLIN G] | – | 1 µg/mL (≈ 2.99 µM) | – | 1 µg/mL (≈ 2.99 µM) | – | – | – | – | 1 µg/mL (≈ 2.99 µM) | – | – | – | – |
| CN[C@H](CC(C)C)C(=O)N[C@H]1C(=O)N[C@@H](CC(N)=O)C(=O)N[C@H]2C(=O)N[C@H]3C(=O)N[C@H](C(=O)N[C@H](C(=O)O)c4cc(O)cc(O)c4-c4cc3ccc4O)[C@H](O)c3ccc(c(Cl)c3)Oc3cc2cc(c3O[C@@H]2O[C@H](CO)[C@@H](O)[C@H](O)[C@H]2O[C@H]2C[C@](C)(N)[C@H](O)[C@H](C)O2)Oc2ccc(cc2Cl)[C@H]1O [VANCOMYCIN] | – | 0.125 µg/mL (≈ 0.0863 µM) | – | 0.0625 µg/mL (≈ 0.0431 µM) | – | – | – | – | 0.25 µg/mL (≈ 0.173 µM) | – | – | – | – |

Source: ChEMBL document CHEMBL3608201, “Synthesis and biological evaluation of levofloxacin core-based derivatives with potent antibacterial activity against resistant Gram-positive pathogens” (Bioorg Med Chem Lett, 2015)
